Converted amounts (≈) assume the structure as drawn.
Columns and labels:
[1] = system: Salmonella Choleraesuis; test: in vitro antibacterial activity (MIC), two-fold serial dilution in Brain-Heart Infusion broth; settings: Salmonella enterica, read-out: MIC Sal. Choleraesuis
Procedure: (§1) The broth is inoculated with bacteria, and with the quinoxaline 1,4-dioxide or 1,3 -dihydrofuro[3,4-b]quinoxaline 4,9-dioxide, and then it is incubated overnight at 37 ° C., under anaerobic conditions. On the next day, the test is read visually. The minimum inhibitory concentration (MIC) of test compound is the lowest concentration which prevents turbidity, i.e. which prevents growth of the microorganism.

[2] = system: Streptococcus pyogenes; test: as above; settings: read-out: MIC Strep pyogenes
Procedure: as §1

[3] = system: Salmonella Choleraesuis; settings: mice, 25 mg./kg., multiple dosing, percentage of animals which survive
Procedure: The test compound is administered using a multiple dosing regimen at a dosage of 25 mg./kg., and using either the oral (PO) or the subcutaneous (SC) route. The inoculum of bacteria varies from one to about ten times the amount needed to kill 100% of the mice, under conditions of the test. At the end of the test, the activity of a compound is assessed by counting the number of survivors among the treated animals and expressing the activity of a compound as the percentage of animals which survive.

[4] = system: Escherichia coli; test: in vitro antibacterial activity (MIC), two-fold serial dilution in Brain-Heart Infusion broth; settings: read-out: MIC Esch coli
Procedure: as §1

Row | Compound | MIC [1] | MIC [2] | Percentage protection vs. Sal. Choleraesuis, PO [3] | Percentage protection vs. Sal. Choleraesuis, SC [3] | MIC [4]
1 | CS(=O)(=O)Cc1c(C(=O)c2ccccc2)[n+]([O-])c2ccccc2[n+]1[O-] [2-Benzoyl-3-methylsulfonylmethylquinoxaline 1,4-Dioxide] | 25 µg/mL (≈ 69.8 µM) | 12.5 µg/mL (≈ 34.9 µM) | 60% | 30% | 25 µg/mL (≈ 69.8 µM)
2 | COC1(c2ccccc2)OCc2c1[n+]([O-])c1ccccc1[n+]2[O-] (stereo not shown) [1-Methoxy-1-phenyl-1,3-dihydrofuro[3,4-b]quinoxaline 4,9-Dioxide] | 100 µg/mL (≈ 322 µM) | 25 µg/mL (≈ 80.6 µM) | 30% | 30% | 25 µg/mL (≈ 80.6 µM)
3 | CC(=O)SCc1c(C(=O)c2ccccc2)[n+]([O-])c2ccccc2[n+]1[O-] [2-Benzoyl-3-acetylthiomethylquinoxaline 1,4-Dioxide] | > 200 µg/mL | > 200 µg/mL | 30% | 20% | > 200 µg/mL
4 | O=C(c1ccccc1)c1c(CO)[n+]([O-])c2ccccc2[n+]1[O-] [2-Benzoyl-3-hydroxymethylquinoxaline 1,4-Dioxide] | 6.25 µg/mL (≈ 21.1 µM) | 0.78 µg/mL (≈ 2.63 µM) | 80% | 60% | 1.56 µg/mL (≈ 5.27 µM)
5 | CC(=O)OCc1c(C(=O)c2ccccc2)[n+]([O-])c2ccccc2[n+]1[O-] [2-Benzoyl-3-acetoxymethylquinoxaline 1,4-Dioxide] | 50 µg/mL (≈ 148 µM) | 12.5 µg/mL (≈ 36.9 µM) | 50% | 10% | 12.5 µg/mL (≈ 36.9 µM)

Source: patent US4012385A, “Antibacterial quinoxaline 1,4-dioxides” (Pfizer Inc., priority 1975, dated 1977)
